Measured values published in the CheMixHub viscosity set.

Assay: xn = mol fraction of the nth substance listed

COC(C)(C)C + c1ccccc1
Conditions | viscosity [mPa·s]
293.15 K, 101.33 kPa, x1 = 0.0933 | 0.629
293.15 K, 101.33 kPa, x1 = 0.1906 | 0.5805
293.15 K, 101.33 kPa, x1 = 0.2994 | 0.5449
293.15 K, 101.33 kPa, x1 = 0.3965 | 0.5122
293.15 K, 101.33 kPa, x1 = 0.5143 | 0.4813
293.15 K, 101.33 kPa, x1 = 0.6083 | 0.4593
293.15 K, 101.33 kPa, x1 = 0.7015 | 0.4466
293.15 K, 101.33 kPa, x1 = 0.8071 | 0.416
293.15 K, 101.33 kPa, x1 = 0.9024 | 0.4052
298.15 K, 101 kPa, x1 = 0.0502 | 0.566
298.15 K, 101 kPa, x1 = 0.0999 | 0.551
298.15 K, 101 kPa, x1 = 0.1994 | 0.499
298.15 K, 101 kPa, x1 = 0.3005 | 0.473
298.15 K, 101 kPa, x1 = 0.4006 | 0.457
298.15 K, 101 kPa, x1 = 0.5003 | 0.437
298.15 K, 101 kPa, x1 = 0.6 | 0.422
298.15 K, 101 kPa, x1 = 0.7003 | 0.397
298.15 K, 101 kPa, x1 = 0.8 | 0.395
298.15 K, 101 kPa, x1 = 0.8997 | 0.376
298.15 K, 101 kPa, x1 = 0.9497 | 0.372
298.15 K, 101.33 kPa, x1 = 0.0933 | 0.5806
298.15 K, 101.33 kPa, x1 = 0.1906 | 0.5446
298.15 K, 101.33 kPa, x1 = 0.2994 | 0.5084
298.15 K, 101.33 kPa, x1 = 0.3965 | 0.4776
298.15 K, 101.33 kPa, x1 = 0.5143 | 0.4676
298.15 K, 101.33 kPa, x1 = 0.6083 | 0.4417
298.15 K, 101.33 kPa, x1 = 0.7015 | 0.4227
298.15 K, 101.33 kPa, x1 = 0.8071 | 0.4037
298.15 K, 101.33 kPa, x1 = 0.9024 | 0.398
303.15 K, 101 kPa, x1 = 0.118 | 0.536
303.15 K, 101 kPa, x1 = 0.2242 | 0.51
303.15 K, 101 kPa, x1 = 0.3408 | 0.483
303.15 K, 101 kPa, x1 = 0.5123 | 0.445
303.15 K, 101 kPa, x1 = 0.6615 | 0.413
303.15 K, 101 kPa, x1 = 0.8195 | 0.382

Clc1ccccc1 + c1ccccc1
Conditions | viscosity [mPa·s]
293.15 K, 101.33 kPa, x1 = 0.143 | 0.6759
293.3 K, 101.33 kPa, x1 = 0.028 | 0.6845
293.55 K, 101.33 kPa, x1 = 0.232 | 0.711
293.65 K, 101.33 kPa, x1 = 0.318 | 0.7337
298.15 K, 101 kPa, x1 = 0.08 | 0.613
298.15 K, 101 kPa, x1 = 0.121 | 0.62
298.15 K, 101 kPa, x1 = 0.162 | 0.623
298.15 K, 101 kPa, x1 = 0.8 | 0.718
298.15 K, 101 kPa, x2 = 0.1034 | 0.7546
298.15 K, 101 kPa, x2 = 0.2016 | 0.7369
298.15 K, 101 kPa, x2 = 0.303 | 0.7233
298.15 K, 101 kPa, x2 = 0.4022 | 0.7072
298.15 K, 101 kPa, x2 = 0.4985 | 0.6923
298.15 K, 101 kPa, x2 = 0.6048 | 0.6743
298.15 K, 101 kPa, x2 = 0.6994 | 0.6625
298.15 K, 101 kPa, x2 = 0.8033 | 0.6462
298.15 K, 101 kPa, x2 = 0.9031 | 0.632
303.15 K, 101 kPa, x2 = 0.1126 | 0.7
303.15 K, 101 kPa, x2 = 0.2016 | 0.6977
303.15 K, 101 kPa, x2 = 0.2221 | 0.6855
303.15 K, 101 kPa, x2 = 0.303 | 0.6794
303.15 K, 101 kPa, x2 = 0.3286 | 0.6713
303.15 K, 101 kPa, x2 = 0.4322 | 0.6573
303.15 K, 101 kPa, x2 = 0.4985 | 0.652
303.15 K, 101 kPa, x2 = 0.5331 | 0.6432
303.15 K, 101 kPa, x2 = 0.6048 | 0.6347
303.15 K, 101 kPa, x2 = 0.6314 | 0.6285
303.15 K, 101 kPa, x2 = 0.6994 | 0.6217
303.15 K, 101 kPa, x2 = 0.7271 | 0.6127
303.15 K, 101 kPa, x2 = 0.8033 | 0.6064
303.15 K, 101 kPa, x2 = 0.8204 | 0.5964
303.15 K, 101 kPa, x2 = 0.9031 | 0.5883
303.15 K, 101 kPa, x2 = 0.9113 | 0.5798
303.15 K, 101.33 kPa, x1 = 0.143 | 0.6027
308.15 K, 101 kPa, x1 = 0.08 | 0.537
308.15 K, 101 kPa, x1 = 0.121 | 0.544
308.15 K, 101 kPa, x1 = 0.162 | 0.547
308.15 K, 101 kPa, x2 = 0.303 | 0.6411
308.15 K, 101 kPa, x2 = 0.4022 | 0.6281
308.15 K, 101 kPa, x2 = 0.4985 | 0.6109
308.15 K, 101 kPa, x2 = 0.6048 | 0.5958
308.15 K, 101 kPa, x2 = 0.6994 | 0.5832
308.15 K, 101 kPa, x2 = 0.8033 | 0.5679
308.15 K, 101 kPa, x2 = 0.9031 | 0.5512
313.05 K, 101.33 kPa, x1 = 0.318 | 0.5743
313.15 K, 101 kPa, x2 = 0.303 | 0.6041
313.15 K, 101 kPa, x2 = 0.4022 | 0.5902
313.15 K, 101 kPa, x2 = 0.4985 | 0.5747
313.15 K, 101 kPa, x2 = 0.6048 | 0.5628
313.15 K, 101 kPa, x2 = 0.6994 | 0.5482
313.15 K, 101 kPa, x2 = 0.8033 | 0.5333
313.15 K, 101 kPa, x2 = 0.9031 | 0.5146
313.15 K, 101.33 kPa, x1 = 0.028 | 0.5278
313.15 K, 101.33 kPa, x1 = 0.411 | 0.5831
313.25 K, 101.33 kPa, x1 = 0.143 | 0.54
313.25 K, 101.33 kPa, x1 = 0.232 | 0.5469
313.25 K, 101.33 kPa, x1 = 0.707 | 0.6187
313.35 K, 101.33 kPa, x1 = 0.512 | 0.593
313.75 K, 101.33 kPa, x1 = 0.073 | 0.5223
313.75 K, 101.33 kPa, x1 = 0.568 | 0.5979
313.75 K, 101.33 kPa, x1 = 0.849 | 0.6472
318.15 K, 101 kPa, x1 = 0.08 | 0.475
318.15 K, 101 kPa, x1 = 0.121 | 0.482
318.15 K, 101 kPa, x1 = 0.162 | 0.486
322.85 K, 101.33 kPa, x1 = 0.143 | 0.5005
323.15 K, 101 kPa, x1 = 0.08 | 0.444
323.15 K, 101 kPa, x1 = 0.121 | 0.451
323.15 K, 101 kPa, x1 = 0.162 | 0.454
323.15 K, 101 kPa, x1 = 0.8 | 0.541
